Measurements published in patent publication US20180344199A1, “OPTIMIZED PLACEMENT OF CANNULA FOR DELIVERY OF THERAPEUTICS TO THE BRAIN” (The Regents of the University of California, priority 2010, published 2018).
Where “and” joins values, the source holds several entries; their conditions need not be identical. Identical values can stand only once.

Columns and labels:
[1] = CED infusion of gadoteridol into NHP brainstem, real-time MRI distribution; format: in vivo, Cynomolgus monkeys and Rhesus macaques
[2] = CED infusion of GDL or free Gadoteridol into NHP putamen, real-time MRI distribution; format: in vivo, Rhesus macaques and Cynomolgus monkeys
Protocol: Thirteen normal adult NHP, including 11 Rhesus macaques (7 male and 4 female, aged from 8 to 18 years; mean age 11.9 years, weight 4-9.4 kg) and 2 Cynomolgus monkeys (one male and one female, age 7 years for both; weight 5 and 7 kg respectively) were the subjects in the present study. Experimentation was performed according to the National Institutes of Health guidelines and to the protocols approved by the Institutional Animal Care and Use Committee at the University of California San Francisco (San Francisco, Calif.) and at Valley Biosystems (Sacramento, Calif.). Thirteen animals received a total of 25 intracranial infusion of GDL (2 mM) or free Gadoteridol (2 mM, Prohance; Bracco Diagnostics, Princeton, N.J.) into the putamen. Infusions were performed by previously established CED techniques for NHP (Bankiewicz, Eberling et al. 2000). GDL were prepared as previously described (Fiandaca, Varenika et al. 2008) (Krauze, McKnight et al. 2005).
Primates received a baseline MRI before surgery to visualize anatomical landmarks and to generate stereotactic coordinates of the proposed target infusion sites for each animals. NHPs underwent neurosurgical procedures to position the MRI-compatible guide cannula over the putamen. Each customized guide cannula was cut to a specified length, stereotactically guided to its target through a burr-hole created in the skull, and secured to the skull by dental acrylic. The tops of the guide cannula assemblies were capped with stylet screws for simple access during the infusion procedure. Animals recovered for at least 2 weeks before initiation of infusion procedures. Animals were anesthetized with isoflurane (Aerrane; Ohmeda Pharmaceutical Products Division, Liberty Corner, N.J.) during real-time MRI acquisition. Each animal's head was placed in an MRI-compatible stereotactic frame, and a baseline MRI was performed. Vital signs, such as heart rate and PO2, were monitored throughout the procedure.
Briefly, the infusion system consisted of a fused silica reflux-resistant cannula (Fiandaca, Varenika et al. 2008) (Krauze, McKnight et al. 2005) that was connected to a loading line (containing GDL or free Gadoteridol), an infusion line with oil, and another infusion line with trypan blue solution. A 1-ml syringe (filled trypan blue solution) mounted onto a micro-infusion pump (BeeHive, Bioanalytical System, West Lafayette, Ind.), regulated the flow of fluid through the system. Based on MRI coordinates, the cannula was mounted onto a stereotactic holder and manually guided to the targeted region of the brain through the previously placed guide cannula. The length of each infusion cannula was measured to ensure that the distal tip extended 3 mm beyond the length of the respective guide. This created a stepped design at the tip of the cannula to maximize fluid distribution during CED procedures and minimize reflux along the cannula tract. We refer to this transition from fused silica tip to a fused silica sheath as the “step”, and all positioning data is derived from the position of this step because of its unambiguous visibility on MRI.
After securing placement of the infusion cannula, the CED procedures were initiated with real-time MRI data being acquired (real-time convective delivery, RCD). We used the same infusion parameters for every NHP infused throughout the study. Infusion rates were as follows: 0.1 μl/min was applied when lowering cannula to targeted area and increased at 10-min intervals to 0.2, 0.5, 0.8, 1.0, and 2.0 μl/min. Approximately 15 min after infusion, the cannula was withdrawn from the brain. Four animals received multiple infusions. Each animal had at least a 4-week interval between each infusion procedure.
NHPs were sedated with a mixture of ketamine (Ketaset, 7 mg/kg, IM) and xylazine (Rompun, 3 mg/kg, IM). After sedation, each animal was placed in a MRI-compatible stereotactic frame. The ear-bar and eye-bar measurements were recorded, and an intravenous line was established. […]

[3] = CED co-infusion of AAV2 vectors and Gd into NHP thalamus, MRI volume of Gd distribution; settings: co-infused with AAV2-GDNF, Vi ~150 μL, n=5, mean±SEM
[4] = CED infusion of gadoteridol into NHP thalamus, real-time MRI distribution; format: in vivo, Cynomolgus monkeys and Rhesus macaques
[5] = 6 cases, good distribution with leakage

## CC(O)CN1CCN(CC(=O)[O-])CCN(CC(=O)[O-])CCN(CC(=O)[O-])CC1.[Gd+3] (centres unmarked) [Gadoteridol]
[1]; 8 infusions
  Vd in the brainstem, mean volume: 585.2±75.4 mm^3
[1]; 100% in 7 cases, 95.6% in one case, listed as Gd
  percent of Vd in the brainstem vs total Vd in brainstem and thalamus: 100% and 95.6%
[1]; brainstem, for Vi 212 μl
  maximum distribution: around 695.6 mm^3
[1]; brainstem, maximum distribution at Vi 212 μl
  distribution ratio: 328.1%
[1]; one brainstem case with leakage into thalamus at end of infusion
  Vd in thalamus (leakage): 30.5 mm^3
[2]; blue zone, 4 cases
  final Vd in WMT, mean volume: 19.4±0.01 mm3
  infusion volume when leakage was first seen, mean: 6.9 ± 0.9 µL
[2]; red zone, 13 cases
  final Vd in WMT, mean volume: 66.8±0.01 mm^3
  infusion volume when leakage was first seen, mean: 7.9 ± 1.7 µL
[2]; step in blue zone, 4 cases
  Vd in the putamen, mean volume: 139.6±0.05 mm^3
[2]; step in green zone, 8 cases
  Vd in the putamen, mean volume: 116.4±0.04 mm^3
[2]; step in red zone, 13 cases
  Vd (putamen), mean volume: 62.1±0.01 mm3
[3]
  ratio of Vd/Vi, mean: 4.68±0.33
[4]; [5]
  Vd in the thalamus, mean volume: 191.3±38.1 mm^3
  percent of Vd in the thalamus, mean: 89.0%±1.3%
[4]; 6 cases, leakage into WMT / lenticular fasciculus
  Vd of leakage, mean volume: 24.3±7.0 mm^3
[4]; 8 cases with excellent distribution
  Vd in the thalamus, mean volume: 405.6±66.6 mm^3
[4]; all 8 cases with excellent distribution
  percent of Vd in the thalamus vs total Vd in thalamus and WMT: 100%
[4]; thalamus, for Vi 158 μl
  maximum distribution: around 660.3 mm^3
[4]; thalamus, maximum distribution at Vi 158 μl
  distribution ratio: 417.9%
